In publication PMC5640644, “HDX reveals the conformational dynamics of DNA sequence specific VDR co-activator interactions” (Nature Communications, 2017):

T1: WT Flag-h RXRα (human, UniProt P19793 1-462)
T1 construct: human retinoid X receptor alpha (RXRα), full length; also called retinoid X receptor α; source: baculovirus system, purified (Flag, SEC)
T1 sequence (looked up): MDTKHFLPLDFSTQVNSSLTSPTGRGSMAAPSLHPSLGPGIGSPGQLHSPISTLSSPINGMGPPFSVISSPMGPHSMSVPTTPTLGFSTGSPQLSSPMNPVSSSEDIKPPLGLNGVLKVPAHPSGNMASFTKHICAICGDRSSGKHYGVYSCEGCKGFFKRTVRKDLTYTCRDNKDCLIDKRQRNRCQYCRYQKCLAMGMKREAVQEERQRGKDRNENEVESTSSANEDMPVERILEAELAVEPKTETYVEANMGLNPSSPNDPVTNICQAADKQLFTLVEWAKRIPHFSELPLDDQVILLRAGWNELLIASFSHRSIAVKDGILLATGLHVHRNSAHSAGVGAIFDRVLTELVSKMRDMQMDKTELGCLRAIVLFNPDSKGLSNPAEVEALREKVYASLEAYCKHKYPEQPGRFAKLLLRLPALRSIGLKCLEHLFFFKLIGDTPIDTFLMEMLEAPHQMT


Experiments:
[1] = test system: BGLAP; test: BGLAP gene activation assay (BGLAP mRNA, QuantiGene 2.0) in MG-63 cells; type: cell-based, human
Procedure: Human osteosarcoma cells MG-63, (CRL-1427, American Type Culture Collection (ATCC), Manassas, VA), were maintained in EMEM (ATCC 30–2003) + 10% FBS in 5% CO2. For bone gamma-carboxyglutamate protein (BGLAP) expression analysis MG-63 cells, suspended in EMEM (ATCC 30–2003) + 5% charcoal dextran treated FBS, were seeded onto 96-well tissue culture treated plates at 25,000 cells per well. After an overnight incubation the medium was removed and serial dilutions of VDRMs in concentrations ranging from 10 μM to 2 nM in EMEM (ATCC 30–2003) + 5% charcoal dextran treated FBS were added. Following a 24 h incubation the medium was removed and the plates were sealed and stored at −80 °C for later processing. QuantiGene 2.0 Assay Kit (Affymetrix QS0009) was used to quantitate BGLAP and the Housekeeping gene […] mRNA levels. Following the kit instructions, lysis buffer was added to the frozen cells and incubated briefly at 55 °C. A volume of 20 μl of BGLAP probeset (Affymetrix SA-10875-01) or 18 S (Affymetrix SA-10026) in blocking buffer was added to the provided capture plates before adding 80 μl of the cell lysate. The plates were sealed and incubated at 55 °C overnight. Following an overnight incubation the capture plates were washed and the probes amplified following kit instructions. The resulting luminescence signal was detected on an Envision (Perkin Elmer). BGLAP signal was normalized using the 18S signal and the resulting data was fit to a 4-parameter logistics to determine EC50.

[2] = test system: TRPV6; test: TRPV6 gene activation assay (TRPV6 mRNA, QuantiGene 2.0) in differentiated C2BBe1 cells; type: cell-based, human
Procedure: C2BBe1 (a clone of CaCO2) cells (CRL-2101, American Type Culture Collection, Manassas, VA) were maintained in DMEM (ATCC 30-2002) supplemented with 10% FBS and insulin-transferrin-selenium-G supplement (Invitrogen, Carlsbad, CA). For TRPV6 expression analysis, cells were plated in 96-well tissue culture treated plates (40,000 per well) in differentiation medium (DMEM containing 5% charcoal-stripped FBS and insulin-transferrin-sodium selenite supplement (ITS)). Cells were allowed to differentiate for 6 days with medium replacement every other day before compound treatment. The medium was removed, and serial dilutions of 1,25D3 or VDRMs in concentrations ranging from 10 μM to 2 nM in differentiation medium were added. After 24 h, the medium was removed, and cell plates were sealed and frozen at −80 °C until assayed. QuantiGene 2.0 Assay Kit (Affymetrix QS0009) was used to quantitate TRPV6 and housekeeping gene GUSB mRNA levels. Following the kit instructions, lysis buffer was added to the frozen cells and incubated briefly at 55 °C […]. Following an overnight incubation the capture plates were washed and the probes amplified following kit instructions. The resulting luminescence signal was detected on an Envision plate reader (Perkin Elmer). TRPV6 signal was normalized using the GUSB signal and the resulting data was fit to a 4-parameter logistic to determine EC50 values.

[3] = molecular target: T1, WT Flag-h RXRα; test: native gel or EMSA; VDR and RXRα mixed at 1:1 molar ratio (about 10 μM); 6% DNA Retardation gel, 0.5X TBE, 150 V, room temperature; ethidium bromide and coomassie staining; conditions: both partners purified

| Molecule | EC50 ([1]; Homo sapiens, MG-63, 24 h, read-out: EC50, BGLAP activation) [nM] | Max. Stim., BGLAP activation ([1]; MG-63 cells, fold change over DMSO normalized to 1,25D3 = 100%) [%] | Max. Stim., TRPV6 activation ([2]; C2BBe1 cells, fold change over DMSO normalized to 1,25D3 = 100%) [%] | EC50 ([2]; Homo sapiens, C2BBe1 cells differentiated 6 days, 24 h, average of replicate runs) [nM] | binding result [3] |
| --- | --- | --- | --- | --- | --- |
| C=C1/C(=C\C=C2/CCC[C@]3(C)[C@@H]([C@H](C)CCCC(C)(C)O)CC[C@@H]23)C[C@@H](O)C[C@@H]1O [1,25D3, 1α,25-dihydroxyvitamin D3, reference compound] | 4.1 | 100 | 100 | 9.81 |  |
| Full-length WT His-hVDR (Δ (151–190)) (receptor, human, UniProt P11473 1-427, looked up, human vitamin D receptor (VDR), full length with residues 151-190 deleted; also called vitamin D receptor; source: baculovirus system, purified (Ni-NTA, SEC)) MEAMAASTSLPDPGDFDRNVPRICGVCGDRATGFHFNAMTCEGCKGFFRRSMKRKALFTCPFNGDCRITKDNRRHCQACRLKRCVDIGMMKEFILTDEEVQRKREMILKRKEEEALKDSLRPKLSEEQQRIIAILLDAHHKTYDPTYSDFITSSDMMDSSSFSNLDLSEEDSDDPSVTLELSQLSMLPHLADLVSYSIQKVIGFAKMIPGFRDLTSEDQIVLLKSSAIEVIMLRSNESFTMDDMSWTCGNQDYKYRVSDVTKAGHSLELIEPLIKFQVGLKKLNLHEEEHVLLMAICIVSPDRPGVQDAALIEAIQDRLSNTLQTYIRCRHPPPGSHLLYAKMIQKLADLRSLNEEHSKQYRCLSFQPECSMKLTPLVLEVFGNEIS |  |  |  |  | binds |
